Like-named read-outs stand apart in the source and are kept apart here.

Experiment in all cases: MIC of included and free biocides on agar
Type in all cases: cell-based
What all share (details): for MIC: read-out: MIC of included and free biocides

The subject of assay [1] is Escherichia coli (gram -). How it is done: (§1) The spectrum of activity of the individual biocide inclusion complexes was determined on bacteria (gram-positive and gram-negative strains), yeasts and fungi (see Table 1). The values are stated as MIC values (=minimum inhibitory concentration) in mg/ml.
(§2) The determination of the growth of the microorganisms was carried out on M121 medium (Sabouraud, 2% maltose nutrient agar (Merck)) for yeasts and fungi and on M130 medium (standard I nutrient agar (Merck)) for bacteria after 72 hours at 28° C. The amount of active substance in the CD inclusion compounds is less than 10%.

Assay [2] relates to Pseudomonas fluorescens (gram -). How it is done: as §1, §2
Assay [3] deals with Candida albicans (yeast). How it is done: as §1, §2
The subject of assay [4] is Staphylococcus aureus (gram +). How it is done: as §1, §2
The subject of assay [5] is Bacillus subtilis (gram +). How it is done:
as §1, §2

Assay [6] has as its system Aspergillus oryzae (fungus). How it is done:
as §1, §2

The mark [7] stands for this setting: M130 medium, 72 hours at 28° C., active substance in complexes <10%.
Where [8] appears, read: M121 medium, 72 hours at 28° C., active substance in complexes <10%.

For 1,2-benzisothiazolin-3-thion [Proxel], the “MIC of included and free biocides” value is less than 40 µg/mL in assay [1] (setting [7]); less than 40 µg/mL in assay [2] (setting [7]); 40 µg/mL in assay [3] (setting [8]); less than 40 µg/mL in assay [4] (setting [7]); less than 40 µg/mL in assay [5] (setting [7]); 75 µg/mL in assay [6] (setting [8]).
For the molecule `N#CSCSC#N` [methylenebisthiocyanate], the minimal inhibitory concentration (MIC) was less than 40 µg/mL in assay [1] (72 h); less than 40 µg/mL in assay [2] (72 h); 20 µg/mL in assay [3] (72 h); 17.5 µg/mL in assay [4] (72 h); 75 µg/mL in assay [5] (72 h); 20 µg/mL in assay [6] (72 h).
For `CNC(=O)c1ccccc1SSc1ccccc1C(=O)NC` [Densil P, dithio-2,2'-bis(benzmethylamide)], the MIC in assay [1] (setting [7]) was 75 µg/mL; in assay [2] (setting [7]) it was 300 µg/mL; in assay [3] (setting [8]), 600 µg/mL; in assay [4] (setting [7]) it was less than 40 µg/mL; in assay [5] (setting [7]) it was less than 40 µg/mL; in assay [6] (setting [8]), less than 40 µg/mL.
For `Oc1ccccc1-c1ccccc1` [o-phenylphenol], the minimal inhibitory concentration (MIC) in assay [1] (72 h) stood at 1250 µg/mL; in assay [2] (72 h), 1250 µg/mL; in assay [3] (72 h) it was 600 µg/mL; in assay [4] (72 h) it was 1250 µg/mL; in assay [5] (72 h) it was 1250 µg/mL; in assay [6] (72 h) it was 300 µg/mL.

For orientation: MIC means the smallest concentration in the dilution series that meets the test's criterion for growth inhibition.

The values above are taken from US5506216A, “Cyclodextrin-biocide complex” (Boehringer Mannheim GmbH, priority 1993, dated 1996).
